≈ marks a conversion by molar mass, not a printed value. Like-named read-outs stand apart in the source and are kept apart here. Where only a bound is given, the exact number is not on record here.

For one assay, the system named is C. parapsilosis. The format is cell-based, Candida parapsilosis. How it is done:
(§1) Broth Dilution Antifungal Susceptibility Testing
The sensitivity of relevant fungal strains to the peptides was determined using Clinical Laboratory Standard Institute (CLSI; formerly NCCLS) Approved Standards. Fungal susceptibility was tested using “Reference Method for Broth Dilution Antifungal Susceptibility Testing of Filamentous Fungi; […];

Another assay deals with Malasezzia furfur. The format is cell-based. The settings on record: Malasezzia furfur strain DSM6170. How it is done:
as §1
(§2) The sensitivity of relevant fungal strains to the peptides was determined using Clinical Laboratory Standard Institute (CLSI; formerly NCCLS) Approved Standards.

Another assay deals with C. albicans. It counts as cell-based, Candida albicans. How it is done: as §1, §2
A further assay has as its system C. krusei. It counts as cell-based, Candida krusei. Particulars: for MIC, Candida krusei NCPF3953: Candida spp. Type Strains MIC Data table, strain NCPF3953. How it is done: as §1, §2
The next assay has as its system C. tropicalis. Briefly: Broth dilution antifungal susceptibility testing of yeasts (CLSI M27-A), MIC. The format is cell-based, Candida tropicalis. The settings on record: C. tropicalis strain ATCC750. How it is done:
as §1
(§3) The sensitivity of relevant fungal strains to the peptides was determined using Clinical Laboratory Standard Institute (CLSI; formerly NCCLS) Approved Standards. Fungal susceptibility was tested using “Reference Method for Broth Dilution Antifungal Susceptibility Testing of Filamentous Fungi; Approved Standard M38-P”, and yeast susceptibility was tested using “Reference Method for Broth Dilution Antifungal Susceptibility Testing of Yeasts; Approved Standard—Second Edition M27-A”.
A general note: Dilution methods test growth across graded concentrations, often in twofold steps.

In another assay the test system is Alternaria spp. Briefly: Broth dilution antifungal susceptibility testing, MIC. It counts as cell-based. The settings on record: Alternaria spp. strain DM 2006 1218a. How it is done:
as §1, §3

The test system of assay [1] is Scopulariopsis brevicaulis. Described as above. It counts as cell-based. The settings on record: Scopulariopsis brevicaulis strain DM 2006 1025. How it is done: as §1, §3
Another assay has as its system Penicillium spp. The assay is described as above. The format is cell-based. The settings on record: Penicillium spp. strain DM 2006 1285b. How it is done:
as §1, §3

The next assay deals with Fusarium solani. The assay is described as above. It counts as cell-based. The settings on record: Fusarium solani strain NCPF2877. How it is done:
as §1, §3

A further assay has as its system Fusarium spp. The assay is described as above. The format is cell-based. Particulars: Fusarium spp. strain DM 2006 1133. How it is done:
as §1, §3

The mark [2] stands for this setting: C. parapsilosis strain ATCC22019.
Setting [3] is: C. parapsilosis strain ATCC90018.

`N=C(N)NCCC[C@H](NC(=O)[C@H](CCCNC(=N)N)NC(=O)[C@H](CCCNC(=N)N)NC(=O)[C@H](CCCNC(=N)N)NC(=O)[C@H](CCCNC(=N)N)NC(=O)[C@H](CCCNC(=N)N)NC(=O)[C@H](CCCNC(=N)N)NC(=O)[C@H](CCCNC(=N)N)NC(=O)[C@H](CCCNC(=N)N)NC(=O)[C@H](CCCNC(=N)N)NC(=O)[C@H](CCCNC(=N)N)NC(=O)[C@H](CCCNC(=N)N)NC(=O)[C@@H](N)CCCNC(=N)N)C(=O)O` [NP337]: the MIC with C. parapsilosis (setting [2]) was found to be 32 µM (≈ 65.6 µg/mL); against C. parapsilosis (setting [3]), 128 µM (≈ 262 µg/mL); against Malasezzia furfur it was 31.25 µM (≈ 64 µg/mL); with C. krusei (C. krusei strain ATCC6258), 2 µM (≈ 4.1 µg/mL); against C. krusei (C. krusei strain NCPF3953), 16 µM (≈ 32.8 µg/mL); against C. tropicalis it was 2 µM (≈ 4.1 µg/mL). Moreover, the “MIC, Candida albicans ATCC24433” value against C. albicans turned out to be 2 µM (≈ 4.1 µg/mL). In addition, the “MIC, Candida albicans ATCC90028” value against C. albicans amounted to 4 µM (≈ 8.19 µg/mL). Further, in the assay with C. albicans, the “MIC, Candida albicans NCTC3179” value is 2 µM (≈ 4.1 µg/mL). Also, the “MIC, Candida krusei NCPF3953” value against C. krusei worked out at 16 µM (≈ 32.8 µg/mL).

With `CC(=O)N[C@@H](CCCNC(=N)N)C(=O)N[C@@H](CCCNC(=N)N)C(=O)N[C@@H](CCCNC(=N)N)C(=O)N[C@@H](CCCNC(=N)N)C(=O)N[C@@H](CCCNC(=N)N)C(=O)N[C@@H](CCCNC(=N)N)C(=O)N[C@@H](CCCNC(=N)N)C(=O)N[C@@H](CCCNC(=N)N)C(=O)N[C@@H](CCCNC(=N)N)C(=O)N[C@@H](CCCNC(=N)N)C(=O)N[C@@H](CCCNC(=N)N)C(=O)N[C@@H](CCCNC(=N)N)C(=O)N[C@@H](CCCNC(=N)N)C(N)=O` [NP338], the MIC in the assay on C. parapsilosis (setting [2]) is 8 µM (≈ 16.7 µg/mL); with C. parapsilosis (setting [3]) it was 128 µM (≈ 267 µg/mL); with Malasezzia furfur, less than 15.6 µM; against C. krusei (C. krusei strain ATCC6258), 2 µM (≈ 4.18 µg/mL); in the assay on C. krusei (C. krusei strain NCPF3953) it was 8 µM (≈ 16.7 µg/mL); in the assay with C. tropicalis it was 2 µM (≈ 4.18 µg/mL). In the assay on C. albicans, the “MIC, Candida albicans ATCC24433” value came to 2 µM (≈ 4.18 µg/mL). For the same compound, the “MIC, Candida albicans ATCC90028” value against C. albicans was determined as 4 µM (≈ 8.36 µg/mL). For the same compound, the “MIC, Candida albicans NCTC3179” value against C. albicans was 2 µM (≈ 4.18 µg/mL). The “MIC, Candida krusei NCPF3953” value with C. krusei worked out at 8 µM (≈ 16.7 µg/mL).

For Poly-L-Arginine (MW 5-15 kDa) [NP121], the MIC is on record as 13.2 (μg/ml) against Alternaria spp.; 3.9 (μg/ml) in assay [1]; 15.6 (μg/ml) in the assay with Penicillium spp.; 7.8 (μg/ml) in the assay with Fusarium solani; 156 (μg/ml) against Fusarium spp..

For the compound Poly-L-Lysine (MW 10-20 kDa) [NP108], the MIC with Alternaria spp. is reported as 62.5 (μg/ml); in assay [1] it was 3.9 (μg/ml); in the assay on Penicillium spp. it was 31.2 (μg/ml); against Fusarium solani, 256 (μg/ml); against Fusarium spp., 125 (μg/ml).
